{"source": "patent US5503843A", "about": "“Transdermal delivery of alpha adrenoceptor blocking agents” (priority 1994, dated 1996)", "key": {"[1]": {"system": "alpha1 A and alpha1 B adrenoceptors", "conditions": "Michel et al.; cited from earlier work"}, "[2]": {"conditions": "cited from earlier work"}, "[3]": {"system": "smooth muscle originating from the trigone muscle at the base of the bladder", "conditions": "trigone smooth muscle preparations; cited from earlier work"}, "[4]": {"conditions": "in vivo; cited from earlier work"}, "[5]": {"system": "rabbit urethral ring tissues", "conditions": "in vitro; cited from earlier work"}, "[6]": {"system": "rabbit trigone", "conditions": "in vitro; cited from earlier work"}, "[7]": {"system": "rat bladder strip", "conditions": "WO93/17007; cited from earlier work"}, "[8]": {"assay": "Solubility of Rec 15/2739 free base in various vehicles (Table 2)", "format": "physicochemical", "description": "Table 2 provides the solubility of the free base forms of the alpha blocker Rec 15/2739 in various vehicles. Solubility of free base is indicated as μg per ml of medium. PBS indicates phosphate buffered saline (20 mM phosphate and 0.9% NaCl)."}, "[9]": {"assay": "pKa of alpha blockers (Table 1)", "format": "physicochemical", "description": "However, the solubility improvement largely depends on the choice of solvent, any specific common ion interaction and the size and polarity of the counterion. Often, salts prepared from strong acids are freely soluble in water. […] Suitable alkane- or arenesulfonic acid anions include […], tosylate (para-toluenesulfonate), mesylate (methanesulfonate), napsylate (1-napthalene-2-sulfonate), besylate (benzene sulfonate) and […]."}, "[10]": {"system": "alpha1 adrenergic receptors", "conditions": "WO93/17007; cited from earlier work"}, "[11]": {"system": "mammalian lower urinary tract", "conditions": "in vivo; cited from earlier work"}, "[12]": {"system": "rabbit prostrate, urethra, and vesical triangle", "conditions": "Honda et al.; cited from earlier work"}, "[13]": {"system": "guinea pig prostrate, urethra, and vesical triangle", "conditions": "Honda et al.; cited from earlier work"}, "[14]": {"system": "human urethra and vesical triangle", "conditions": "Honda et al.; cited from earlier work"}}, "note": "Read-outs that look alike come from different tables or passages of the source.", "data": [{"compound": "COc1cc2nc(N(C)CCCNC(=O)C3CCCO3)nc(N)c2cc1OC", "note": "(stereo not drawn) [Alfuzosin, N-3-(4-Amino-6,7dimethoxy-2-quinazolinyl) methylamino!propyl!tetrahydro-2-furancarboxamide]", "values": [{"measurement": "selectivity for alpha1 subtypes", "setting": "[1]", "value": "lacks any relevant selectivity for alpha1 subtypes"}, {"measurement": "plasma half life", "setting": "[2]; S. Lieto di Priolo et al.", "value": "4 to 9", "unit": "h"}, {"measurement": "mean oral bioavailability", "setting": "[2]; oral, Wilde et al.", "value": 64, "unit": "%"}, {"measurement": "activity in altering phenylephrine induced contractions", "setting": "[3]", "value": "shows activity in altering the phenylephrine induced contractions"}]}, {"compound": "COc1cc2nc(N3CCN(C(=O)c4ccco4)CC3)nc(N)c2cc1OC", "note": "[Prazosin, reference compound]", "values": [{"measurement": "most common side effect", "setting": "[4]", "value": "hypotension"}]}, {"compound": "COc1cc2nc(N(C)CCCNC(=O)[C@H]3CCCO3)nc(N)c2cc1OC", "note": "[R enantiomer]", "values": [{"measurement": "potency in antagonizing phenylephrine induced contraction (R vs S enantiomer)", "setting": "[5]", "value": "equally potent"}, {"measurement": "potency in antagonizing phenylephrine induced contraction (R vs S enantiomer)", "setting": "[6]", "value": "equally potent"}]}, {"compound": "COc1ccccc1N1CCN(CCCNC(=O)c2cccc3c(=O)c(C)c(-c4ccccc4)oc23)CC1", "note": "[Rec 15/2739, 8(3-4-(2-methoxyphenyl)-1-piperazinyl!-propylcarbamoyl)-3-methyl-4-oxo-2-phenyl-4H-1-benzopyran]", "values": [{"measurement": "toxicity", "setting": "[4]", "value": "low toxicity"}, {"measurement": "antagonistic effects against contractions induced by potassium chloride", "setting": "[7]", "value": "demonstrate antagonistic effects against contractions of rat bladder strip induced by potassium chloride"}, {"measurement": "solubility", "setting": "[8]; aqueous buffer, PBS pH 5.2", "value": 68, "unit": "µg/mL"}, {"measurement": "solubility", "setting": "[8]; aqueous buffer, PBS pH 6.7", "value": 5.2, "unit": "µg/mL"}, {"measurement": "solubility", "setting": "[8]; saline", "value": 1.5, "unit": "µg/mL"}, {"measurement": "pKa", "setting": "[9]; read-out: pKa", "value": 7}, {"measurement": "affinity and selectivity for alpha1 adrenergic receptors", "setting": "[10]", "value": "has affinity and selectivity for the alpha1 adrenergic receptors"}, {"measurement": "selectivity for lower urinary tract (urethral contractions vs lowering blood pressure)", "setting": "[11]", "value": "substantially more active in antagonizing urethral contractions than in lowering blood pressure"}]}, {"compound": "COc1cc2nc(N(C)CCCNC(=O)[C@@H]3CCCO3)nc(N)c2cc1OC", "note": "[S enantiomer]", "values": [{"measurement": "potency in antagonizing phenylephrine induced contraction (R vs S enantiomer)", "setting": "[5]", "value": "equally potent"}, {"measurement": "potency in antagonizing phenylephrine induced contraction (R vs S enantiomer)", "setting": "[6]", "value": "equally potent"}]}, {"compound": "CCOc1ccccc1OCCNC(C)Cc1ccc(OC)c(S(N)(=O)=O)c1", "note": "(stereo not drawn) [Tamsulosin, 5-2-2-(o-Ethoxyphenoxy)-ethyl!amino!propyl!-2-methoxybenzenesulfonamide]", "values": [{"measurement": "reduction of contraction", "setting": "[12]", "value": "reduces the contraction"}, {"measurement": "reduction of contraction", "setting": "[13]", "value": "reduces the contraction"}, {"measurement": "reduction of contraction", "setting": "[14]", "value": "reduces the contraction"}]}, {"compound": "COc1cc2nc(N3CCN(C(=O)C4CCCO4)CC3)nc(N)c2cc1OC", "note": "(stereo not drawn) [Terazosin, reference compound]", "values": [{"measurement": "pKa", "setting": "[9]", "value": 7.1}]}]}
